{
  "source": "paper PMC6254985",
  "about": "(Journal of Experimental Pharmacology, 2018)",
  "key": {"human D2S receptor": {"target": "human D2S receptor (Homo sapiens, UniProt P14416)", "sequence (P14416 1-414 isoform P14416-2)": "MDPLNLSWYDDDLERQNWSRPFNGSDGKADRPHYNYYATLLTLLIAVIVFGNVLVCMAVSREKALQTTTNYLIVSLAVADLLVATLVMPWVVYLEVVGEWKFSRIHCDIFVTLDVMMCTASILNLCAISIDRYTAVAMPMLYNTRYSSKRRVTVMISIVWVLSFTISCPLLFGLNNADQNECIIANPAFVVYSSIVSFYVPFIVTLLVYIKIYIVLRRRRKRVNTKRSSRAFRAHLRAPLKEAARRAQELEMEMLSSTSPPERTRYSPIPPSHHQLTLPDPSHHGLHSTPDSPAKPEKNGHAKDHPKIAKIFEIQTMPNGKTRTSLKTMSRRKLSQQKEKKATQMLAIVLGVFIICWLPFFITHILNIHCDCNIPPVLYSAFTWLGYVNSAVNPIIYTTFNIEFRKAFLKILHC", "experiment": "[35S]GTPγS binding assay, antagonist activity, D2S", "type": "biochemical"}, "human D2L receptor": {"target": "human D2L receptor (Homo sapiens, UniProt P14416)", "sequence (P14416 whole entry)": "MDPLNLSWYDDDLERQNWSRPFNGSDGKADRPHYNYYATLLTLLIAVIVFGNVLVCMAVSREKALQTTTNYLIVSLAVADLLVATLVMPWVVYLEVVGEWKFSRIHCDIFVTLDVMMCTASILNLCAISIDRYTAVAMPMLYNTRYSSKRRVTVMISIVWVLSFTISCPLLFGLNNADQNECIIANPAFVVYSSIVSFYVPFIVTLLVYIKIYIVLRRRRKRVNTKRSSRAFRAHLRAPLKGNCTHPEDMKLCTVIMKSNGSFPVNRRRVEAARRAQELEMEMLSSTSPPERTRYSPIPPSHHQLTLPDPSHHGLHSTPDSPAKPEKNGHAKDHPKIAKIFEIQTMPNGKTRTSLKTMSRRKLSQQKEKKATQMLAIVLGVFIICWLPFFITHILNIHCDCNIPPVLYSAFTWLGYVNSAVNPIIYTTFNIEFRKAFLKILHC", "experiment": "[35S]GTPγS binding assay, antagonist activity, D2L", "type": "biochemical"}, "[1]": {"conditions": "cited from earlier work"}, "[2]": {"test_system": "5-HT2A, 5-HT2B, 5-HT2C, 5-HT6, 5-HT7, D1, D2S, D2L, D3, or D5", "experiment": "Agonist effect in the presence of dopamine or norepinephrine", "type": "cell-based"}, "[3]": {"test_system": "alpha-adrenergic receptors", "experiment": "Inhibition of alpha-adrenergic receptors"}},
  "note": "pIC50: −log10 of the molar value. Where a name gives a salt, the structure may show the parent alone. Read-outs that look alike come from different tables or passages of the source.",
  "data": [
    {"smiles": "CCc1c(C)[nH]c2c1C(=O)[C@@H](CN1CCOCC1)CC2", "note": "(single isomer, unassigned) [R(−) enantiomer]", "values": [
      {"measurement": "Antagonist potency of R(−) relative to S(+) enantiomer, D2S", "setting": "human D2S receptor; based on the IC50", "result": "~ 100 fold"},
      {"measurement": "pIC50", "setting": "human D2S receptor; read-out: IC50 of enantiomers, D2S, [35S]GTPγS binding assay", "result": 7.32},
      {"measurement": "Antagonist potency of R(−) relative to S(+) enantiomer, D2L", "setting": "human D2L receptor; based on the IC50", "result": "~300", "unit": "fold"},
      {"measurement": "pIC50", "setting": "human D2L receptor; read-out: IC50 of enantiomers, D2L, [35S]GTPγS binding assay", "result": 7.68}
    ]},
    {"smiles": "CCc1c(C)[nH]c2c1C(=O)C(CN1CCOCC1)CC2", "note": "(stereo not drawn) [SPN-810M, Molindone Hydrochloride]", "values": [
      {"measurement": "Parkinsonism or extrapyramidal symptoms", "setting": "[1]", "result": "little to no parkinsonism or extrapyramidal symptoms"},
      {"measurement": "Propensity for weight gain", "setting": "[1]", "result": "low propensity for weight gain"},
      {"measurement": "Agonist effect in the presence of dopamine or norepinephrine", "setting": "[2]", "result": "No agonist effect"},
      {"measurement": "pIC50", "setting": "human D2S receptor", "result": 7.07},
      {"measurement": "Inhibition of the alpha-adrenergic receptors", "setting": "[3]", "result": "no significant inhibition"}
    ]}
  ]
}
